According to patent US8399490B2, “Insecticides” (Syngenta Crop Protection LLC, priority 2007, dated 2013):

Experiments:
Format in all cases: in vivo
[1] = tested on: Spodoptera littoralis (Egyptian cotton leafworm); assay: Example B9: comparison with state of the art, Spodoptera littoralis (larvicide, feeding/residual contact activity, preventive)
[2] = tested on: Spodoptera littoralis (Egyptian cotton leafworm); assay: Example B1: Activity against Spodoptera littoralis (larvicide, feeding/residual contact activity, preventive), cotton leaf discs; details: foliar, 72 h, L1 larvae on cotton leaf discs, 3 days after treatment
[3] = tested on: Heliothis virescens (tobacco budworm); assay: Example B2: Activity against Heliothis virescens (ovo-larvicide, feeding/contact activity, curative), eggs on artificial diet; details: 96 h, 4 days incubation
Procedure: Activity Against Heliothis virescens (Tobacco Budworm) (Ovo-Larvicide, Feeding/Contact Activity, Curative) Eggs (0-24 h old) are placed in 24-well microtiter plate on artificial diet and treated with test solutions by pipetting. After an incubation period of 4 days, samples are checked for egg mortality, larval mortality, and growth regulation.

[4] = tested on: Plutella xylostella (diamond back moth); assay: Example B3: Plutella xylostella (larvicide, feeding/residual contact activity, preventive), artificial diet MTP; details: 120 h, L2 larvae on artificial diet, 5 days incubation
Procedure: Plutella xylostella (Diamond Back Moth) (Larvicide, Feeding/Residual Contact Activity, Preventive) 24-well microtiter plate (MTP) with artificial diet is treated with test solutions by pipetting. After drying, the MTP's are infested with larvae (L2) (10-15 per well). After an incubation period of 5 days, samples are checked for larval mortality, antifeedant and growth regulation.

[5] = tested on: Plutella xylostella (diamond back moth); assay: Example B8: comparison with state of the art, Plutella xylostella (larvicide, feeding/residual contact activity, preventive)
Procedure: Plutella xylostella (Diamond Back Moth)
(Larvicide, Feeding/Residual Contact Activity, Preventive)
24-well microtiter plate (MTP) with artificial diet is treated with test solutions by pipetting. After drying, the MTP's are infested with larvae (L2) (10-15 per well). After an incubation period of 5 days, samples are checked for larval mortality, antifeedant and growth regulation.

[6] = tested on: Diabrotica balteata (corn root worm); assay: Example B4: Diabrotica balteata (larvicide, feeding/residual contact activity, preventive), artificial diet MTP; details: 120 h, L2 larvae on artificial diet, 5 days incubation
Procedure: Diabrotica balteata (Corn Root Worm) (Larvicide, Feeding/Residual Contact Activity, Preventive) 24-well microtiter plate (MTP) with artificial diet is treated with test solutions by pipetting. After drying, the MTP's are infested with larvae (L2) (6-10 per well). After an incubation period of 5 days, samples are checked for larval mortality, antifeedant and growth regulation.

SMILES	Death rate (%) after 5 days ([1]; Concentration 12.5 ppm) [%]	Death rate (%) after 5 days ([1]; Concentration 50 ppm) [%]	Death rate (%) after 5 days ([1]; Concentration 200 ppm)	insecticidal action compared with the compound from the state of the art (T91.3) ([1]; on Spodoptera littoralis, especially at low application rates)	pest or weed control at 400 ppm [2] [%]	pest or weed control at 400 ppm [3] [%]	pest or weed control at 400 ppm [4] [%]	Death rate (%) after 5 days ([5]; Concentration 12.5 ppm) [%]	Death rate (%) after 5 days ([5]; Concentration 50 ppm) [%]	Death rate (%) after 5 days ([5]; Concentration 200 ppm) [%]	insecticidal action compared with the compound from the state of the art (T91.3) ([5]; on Plutella xylostella, especially at low application rates)	pest or weed control at 400 ppm [6] [%]
CC(C)NC(=O)c1c(NC(=O)c2cc(C(F)(F)F)nn2-c2ncccc2Cl)c(Cl)cc2c1OC(F)(F)O2 [P.13]	100	100	100%	substantially better insecticidal action	> 80	> 80	> 80	100	100	100	substantially better insecticidal action	> 80
CC(C)NC(=O)c1cc2c(c(Cl)c1NC(=O)c1cc(C(F)(F)F)nn1-c1ncccc1Cl)OC(F)(F)O2 [T91.3, reference compound]	0	0	100 (growth) %					0	80	100		
